Measured values taken from patent US20040006070A1, “Intraspinal continuous infusion of midazolam hydrochloride for the treatment of pain” (priority 2002, published 2004).
Values joined by “and” are separate entries in the source; they are usually repeats but may differ in a detail not shown here. Equal entries are not always repeated. Structures can show the parent of a compound that is named as a salt.

How the values were obtained:
[1] = tested on: neuropathic pain model in the sheep; assay: Neuropathic pain model in sheep, mechanical stimulus device; assay type: in vivo; conditions: for Mechanical Stimulus device: sheep Rowdy #819
Description: The neuropathic pain model in the sheep is created by placing four tight ligatures around the median, radial, or ulnar nerve (or a combination thereof) with 0-chromic gut suture. This method produces a chronic painful peripheral mononeuropathy which may be related to those conditions seen in humans with causalgia and reflex sympathetic dystrophy. To date, the onset of neuropathic pain has occurred 1 to 9 days postoperatively, as evidenced by the display of painful behavior such as hyperalgesia, not bearing weight or holding the operated leg off the ground. The duration of the painful behavior lasted 16 to 62 days. […] It has been difficult to identify a segment of the median nerve that is consistently appropriate to achieve the neuropathic pain behavior. The inventors are continuing to test different segments of the median nerve and other mixed sensory/motor nerves to consistently produce this behavior. Of the five animals that developed neuropathic pain, three were treated with intrathecal morphine or midazolam as single agents.
In the sheep with neuropathic pain treated by midazolam alone, intrathecal administration of midazolam was initiated at 3 to 5 mg/day and the dose was escalated to up to 15 mg/day. […] This analgesia was documented using a mechanical stimulus device and/or behavior monitoring. The mechanical stimulus device measures pressure applied to a blunt pin against the foreleg. The pressure at which the animal lifts its leg in response to the painful stimulus is documented. In the sheep monitored by this device, administration of intrathecal midazolam allowed endurance of up to 18 Newtons of pressure (cut off to prevent tissue damage was set at 19.99 N) compared to the baseline (pretreatment) pressure endured of 9.59 N.
A mechanical stimulus device as described in Example 6, and/or behavior monitoring as described in Example 5 is used to test analgesic effect in the neuropathic pain model. To compare the effects of midazolam using the mechanical stimulus device, the data were accumulated over the testing period, and all response latencies were expressed as percentage of the maximum possible effect (MPE) where: [formula]
This test will be conducted prior to initiation of midazolam infusion and again on days 1, 3, 7, 15, 22, 29, 36, 43 during infusion. The mechanical stimulus device has been developed and validated (Nolan et al. 1987; Kyles et al., 1995) for pain testing in the sheep model.

[2] = Gait monitoring, four-grade scale of behavioral and motor changes; assay type: in vivo, sheep; set-up: key: Grade 0: animal standing, sheep is able to rise and ambulate without any difficulty; Grade 1: Shuffling of either rear leg or slight limp; slight distortion of normal spinal axis; Grade 2: Loss of righting reflex in one of the rear legs, sheep able to stand without assistance, but with some difficulty; Grade 3: Inability to maintain standing posture; attempts to help animal stand are unsuccessful; conditions: day (1-43)
Description: (§1) Daily rectal temperatures were taken and any behavioral/motor changes were noted. Gait monitoring will be conducted as described below based on a four-grade scale for the evaluation of behavioral and motor changes. Grade 0: animal standing, sheep is able to rise and ambulate without any difficulty. Grade 1: Shuffling of either rear leg or slight limp; slight distortion of normal spinal axis. Grade 2: Loss of righting reflex in one of the rear legs, sheep able to stand without assistance, but with some difficulty. Grade 3: Inability to maintain standing posture; attempts to help animal stand are unsuccessful.

[3] = Physiological data: indirect blood pressure, pulse, rectal temperature, weight; assay type: in vivo, sheep
Description: as §1
Indirect blood pressure, pulse recording, pain testing (mechanical stimulus device, cold and warm water baths see description in procedure) and weight were taken on days 1, 3, 7, 15, 22, 29, 36, and 43. Venous blood samples (15 ml drawn from the jugular vein with Vacutainer brand blood collection tubes) for complete blood count, electrolytes, and extended blood chemistry were drawn on days 1, 15, and 43 (mild procedure only light hand restraint necessary).

[4] = 1-5 mg/day, prior art; cited from earlier work
[5] = double blinded sheep Chicken Hawk #87, 5 mg/day intrathecal infusion, day (1-43), hydrochloride
[6] = double blinded sheep Elmer Fudd #437, 5 mg/day intrathecal infusion, day (1-43), hydrochloride
[7] = double blinded sheep Leghorn II #815, 15 mg/day intrathecal infusion, day (1-43), hydrochloride
[8] = double blinded sheep Petunia #439, 15 mg/day intrathecal infusion, day (1-43), hydrochloride
[9] = double blinded sheep Porky #402, 5 mg/day intrathecal infusion, day (1-43), hydrochloride
[10] = double blinded sheep Roadrunner #84, 15 mg/day intrathecal infusion, day (1-43), hydrochloride
[11] = open label sheep #457 Tazz, 15 mg/day intrathecal infusion, day (1-43), hydrochloride
[12] = open label sheep #498 Toad, 10 mg/day intrathecal infusion, day (1-43), hydrochloride
[13] = open label sheep #518 Sandy, 5 mg/day intrathecal infusion, day (1-43), hydrochloride
[14] = open label sheep Dot #85, 15 mg/day intrathecal infusion, day (1-43), hydrochloride
[15] = open label sheep Wacko #83, 15 mg/day intrathecal infusion, day (1-43), hydrochloride
[16] = open label sheep Yacko #91, 15 mg/day intrathecal infusion, day (1-43), hydrochloride

With `Cc1ncc2n1-c1ccc(Cl)cc1C(c1ccccc1F)=NC2` [Midazolam, midazolam hydrochloride] the “pressure endured (mechanical stimulus device)” value ([1]; Sheep #819, cut off 19.99 N, baseline (pretreatment) 9.59 N) was “up to 18 Newtons”, the analgesia ([1]; neuropathic pain sheep, midazolam alone, 3 to 5 mg/day escalated up to 15 mg/day intrathecal) was “significant analgesia” and the “Mechanical Stimulus device” value ([1]; 10 mg) was 13.7N. The “Mechanical Stimulus device” value ([1]; 15 mg) was 7.0N, the “Gait Normal 0” value ([2]; double blinded sheep Chicken Hawk #87, 5 mg/day intrathecal infusion) was 0 and the “Gait Normal 0” value ([2]; double blinded sheep Elmer Fudd #437, 5 mg/day intrathecal infusion) was 0. The “Gait Normal 0” value ([2]; double blinded sheep Leghorn II #815, 15 mg/day intrathecal infusion) was 0, the “Gait Normal 0” value ([2]; double blinded sheep Petunia #439, 15 mg/day intrathecal infusion) was 0 and the “Gait Normal 0” value ([2]; double blinded sheep Porky #402, 5 mg/day intrathecal infusion) was 0. The “Gait Normal 0” value ([2]; double blinded sheep Roadrunner #84, 15 mg/day intrathecal infusion) was 0, the “Gait Normal 0” value ([2]; open label sheep #457 Tazz, 15 mg/day intrathecal infusion) was 0 and the “Gait Normal 0” value ([2]; open label sheep #498 Toad, 10 mg/day intrathecal infusion) was 0. For the same molecule, the “Gait Normal 0” value ([2]; open label sheep #518 Sandy, 5 mg/day intrathecal infusion) was 0, the “Gait Normal 0” value ([2]; open label sheep Dot #85, 15 mg/day intrathecal infusion) was 0 and the “Gait Normal 0” value ([2]; open label sheep Wacko #83, 15 mg/day intrathecal infusion) was 0. For the same molecule, the “Gait Normal 0” value ([2]; open label sheep Yacko #91, 15 mg/day intrathecal infusion) was 0, the “Blood pressure Dia” value [3, 5] was 62 and 37 and 53 and 51 and 44 and 65 and 69 and 48 and the “Blood pressure Sys” value [3, 5] was 112 and 127 and 122 and 132 and 130 and 126 and 151. For the same molecule, the “Body Temp. Normal 101.3-104.0” value [3, 5] was 102.4 and 102.6 and 102.8 and 102.2 and 102.0, the “Pulse Rate Normal 55-115” value [3, 5] was 75 and 83 and 63 and 101 and 79 and 88 and 84 and 82 and the “Blood pressure Sys” value [3, 6] was 122 and 138 and 119 and 131 and 150 and 136 and 139 and 120. The “Body Temp. Normal 101.3-104.0” value [3, 6] was 102.2 and 102.8 and 101.4 and 102.0 and 101.8, the “Pulse Rate Normal 55-115” value [3, 6] was 87 and 70 and 80 and 83 and 79 and 73 and 85 and the “Blood pressure Sys” value [3, 7] was 130 and 152 and 143 and 160 and 138 and 145. The “Body Temp. Normal 101.3-104.0” value [3, 7] was 104.2 and 102.4 and 102.8 and 102.2 and 102.6, the “Pulse Rate Normal 55-115” value [3, 7] was 111 and 144 and 88 and 125 and 121 and 97 and 89 and 87 and the “Blood pressure Dia” value [3, 8] was 34 and 49 and 44 and 32 and 26 and 45. For the same molecule, the “Blood pressure Sys” value [3, 8] was 133 and 152 and 126 and 132 and 123 and 114 and 120 and 142, the “Body Temp. Normal 101.3-104.0” value [3, 8] was 102.0 and 102.8 and 103.0 and 101.0 and 102.4 and the “Pulse Rate Normal 55-115” value [3, 8] was 89 and 72 and 74 and 69 and 66 and 63 and 71 and 90. The “Blood pressure Dia” value [3, 9] was 65 and 70 and 42 and 67 and 55 and 68 and 41 and 40, the “Blood pressure Sys” value [3, 9] was 148 and 107 and 140 and 133 and 113 and 135 and 134 and 147 and the “Body Temp. Normal 101.3-104.0” value [3, 9] was 102.0 and 102.6 and 101.0 and 101.2 and 102.2. For the same molecule, the “Pulse Rate Normal 55-115” value [3, 9] was 87 and 99 and 89 and 100 and 90 and 86 and 108, the “Blood pressure Dia” value [3, 10] was 75 and 77 and 49 and 42 and 50 and 51 and 40 and the “Blood pressure Sys” value [3, 10] was 137 and 124 and 132 and 116 and 144. For the same molecule, the “Body Temp. Normal 101.3-104.0” value [3, 10] was 101.8 and 101.6 and 102.2 and 104.0 and 102.4 and 102.0 and 102.6, the “Pulse Rate Normal 55-115” value [3, 10] was 90 and 97 and 104 and 78 and 94 and 130 and 124 and 77 and the “Blood pressure Dia” value [3, 11] was 83 and 71 and 68 and 70 and 73 and 88. The Blood pressure sys [3, 11] was 151 and 154 and 145 and 147 and 135, the “Body Temp. Normal 101.3-104.0” value [3, 11] was 100.8 and 102.2 and 103.0 and 102.0 and the “Pulse Rate Normal 55-115” value [3, 11] was 138 and 77 and 74 and 76 and 79 and 82. The “Blood pressure Dia” value [3, 12] was 98 and 73 and 66 and 109 and 71 and 59 and 58, the “Blood pressure Sys” value [3, 12] was 177 and 143 and 136 and 156 and 153 and 118 and 149 and the “Body Temp. Normal 101.3-104.0” value [3, 12] was 102.0 and 104.2 and 102.8 and 102.4 and 101.8 and 103.0 and 103.2. For the same molecule, the “Pulse Rate Normal 55-115” value [3, 12] was 98 and 79 and 95 and 77 and 104 and 67 and 89 and 78, the “Blood pressure Sys” value [3, 13] was 180 and 150 and 141 and 152 and 147 and 169 and 164 and 185 and the “Body Temp. Normal 101.3-104.0” value [3, 13] was 102.0 and 101.0 and 101.8 and 101.6 and 102.8. For the same molecule, the “Blood pressure Dia” value [3, 14] was 68 and 49 and 67 and 59 and 53 and 77 and 57 and 69, the “Blood pressure Sys” value [3, 14] was 128 and 109 and 110 and 133 and 130 and 120 and 155 and the “Pulse Rate Normal 55-115” value [3, 14] was 92 and 89 and 86 and 117 and 85 and 72 and 66 and 71. For the same molecule, the “Blood pressure Dia” value [3, 15] was 60 and 45 and 47 and 42 and 51 and 66 and 73 and 70, the “Blood pressure Sys” value [3, 15] was 148 and 166 and 130 and 106 and 102 and 132 and 163 and 128 and the “Body Temp. Normal 101.3-104.0” value [3, 15] was 102.0 and 102.4 and 102.6. The “Pulse Rate Normal 55-115” value [3, 15] was 104 and 98 and 91 and 92 and 99 and 84 and 75, the “Blood pressure Sys” value [3, 16] was 138 and 143 and 156 and 110 and 151 and 160 and 149 and the “Pulse Rate Normal 55-115” value [3, 16] was 115 and 80 and 84 and 86 and 72 and 82 and 66 and 69. For the same molecule, the Blood pre-assure ([3]; sheep Rowdy #819, 10 mg) was 136/75, the Pulse ([3]; sheep Rowdy #819, 10 mg) was 122 and the Blood pre-assure ([3]; sheep Rowdy #819, 15 mg) was 143/77. The Pulse ([3]; sheep Rowdy #819, 15 mg) was 94, the Respirations per minute ([3]; sheep Rowdy #819, 15 mg) was 40 per minute and the toxicities reported [4] was “Sedation and somnolence”.
